Experimental findings from patent publication US20260049079A1, “CHIRAL SYNTHESIS OF FUSED BICYCLIC RAF INHIBITORS” (Jazz Pharmaceuticals Ireland Limited, priority 2020, published 2026) are described below.

The term hepatocyte CLint denotes the capacity of the preparation to metabolise the compound, expressed as a volume cleared per time. A higher hepatocyte CLint goes with rapid turnover.

In one data set the test system is WiDr cells. Kind of data set: WiDr CellTiter-Glo 3D Cell Proliferation Assay. As to conditions: Homo sapiens, WiDr spheroids, read-out: 3D WiDr pGI50 (converted). The format is cell-based.
The nature of data set [1]: Hepatocyte Stability Assay (HLH). The format is in vitro ADME. The conditions noted are these: human hepatocytes, 0.5×10^6 cells/mL, 1 μM compound, 37° C. The method, then:
Hepatocyte Stability Assay
Hepatocyte stability studies were performed manually using the substrate depletion approach. Compounds were incubated at 37° C. with cryo-preserved mouse (Bioreclamation) or human (Corning) hepatocytes at a cell density of 0.5×10^6 cells/mL and a final compound concentration of 1 μM. Sampling was performed at defined timepoints and the reaction was terminated by adding to ice-cold organic solvent. Compound concentrations were determined by LC-MS/MS analysis. The natural log of the percentage of compound remaining was plotted against each time point and the slope determined. The half-life (t1/2) and CLint were calculated using Equations 1 and 3, respectively. Data analysis was performed using Excel (Microsoft, USA).
HLH (human liver hepatocytes) and MLH (mouse liver heptaocytes) stability assay results are described in Table 34C.

Data set [2] has as its system BRAF monomers in A375 cells (BRAF V600E, pERK). Kind of data set: A375 AlphaLISA SureFire pERK1/2 Cellular Assay (Monomer). The data set is classed as cell-based. As to conditions: Homo sapiens. The method, then:
[Worded in the source for another cell line; used here, by the source, with some conditions changed.] (§1) The human HCT-116 colorectal carcinoma cell line (ATCC CCL-247) endogenously expresses the KRAS^G13D mutation, which leads to constitutive activation of the MAP kinase pathway and phosphorylation of ERK. […] Assay read outs took place 2 or 24 hours after dosing with compounds. On the first day, HCT-116 cells were harvested, resuspended in growth medium (McCoys5A with Glutamax (Life Technologies 36600021) and 10% heat-inactivated fetal bovine serum (Sigma F9665)), and counted. Cells were plated in 100 μl per well in each well of a 96-well culture dish (Sigma CLS3598) to a final density of 30,000 (2 hr read) or 15,000 (24 hr read) cells per well and incubated over night at 37° C. and 5% CO2. On day 2, the growth medium was exchanged for dosing medium (McCoys5A with Glutamax (Life Technologies 36600021) and 1% heat-inactivated fetal bovine serum (Sigma F9665)) and the cells were dosed with compounds to produce a 10-point dose response, where the top concentration was 1 μM and subsequent concentrations were at ⅓ log dilution intervals. A matched DMSO control was included. The cells were subsequently incubated for either 2 or 24 hours at 37° C. and 5% CO2. After incubation, media was removed and the cells were incubated with lysis buffer containing phosphatase inhibitors for 15 minutes at room temperature. Cell lysates were transferred to a ½ area 96 well white Optiplate™ (Perkin Elmer 6005569) and incubated with anti-mouse IgG acceptor beads, a biotinylated anti-ERK1/2 rabbit antibody recognizing both phosphorylated and non-phosphorylated ERK1/2, a mouse antibody targeted to the Thr202/Tyr204 epitope and recognizing phosphorylated ERK proteins only, and streptavidin-coated donor beads. The biotinylated antibody binds to the streptavidin-coated donor beads and the phopsho-ERK1/2 antibody binds to the acceptor beads. Plates were read on an EnVision reader (Perkin Elmer) and excitation of the beads at 680 nm with a laser induced the release of singlet oxygen molecules from the donor beads that trigger energy transfer to the acceptor beads in close proximity, producing a signal that can be measured at […]. Both antibodies bound to phosphorylated ERK proteins, bringing the donor and acceptor beads into close proximity. All data were analyzed using the Dotmatics or GraphPad Prism software packages. Inhibition of ERK phosphorylation was assessed by determination of the absolute IC50 value, which is defined as the concentration of compound required to decrease the level of phosphorylated ERK proteins by 50% when compared to DMSO control.
A375 AlphaLISA SureFire pERK1/2 Cellular Assay (Monomer) […]
On the technique in general: In Alpha technology, singlet oxygen from a donor bead excites a nearby acceptor bead.

The subject of data set [3] is RAF dimers in HCT-116 cells (Encorafenib-induced pERK signalling). Kind of data set: HCT-116 AlphaLISA SureFire pERK1/2 Cellular Assay (Dimer). The data set is classed as cell-based. As to conditions: Homo sapiens. The method, then:
as §1
HCT-116 AlphaLISA SureFire pERK1/2 Cellular Assay (Dimer) […]

Data set [4] can be described thus: Plasma Protein Binding Assay (hPPB). The format is in vitro ADME. The conditions noted are these: human plasma, equilibrium dialysis, 5 μM, 4 hours, 37° C. How it is done: Plasma Protein Binding Assay
The plasma protein binding was determined by the equilibrium dialysis method. A known concentration of compound (5 μM) in previously frozen human or mouse plasma (Sera Labs) was dialysed against phosphate buffer using a RED device (Life Technologies) for 4 hours at 37° C. The concentration of compound in the protein containing (PC) and protein free (PF) sides of the dialysis membrane were determined by LC-MS/MS and the % free compound was determined by equation 4. Data analysis was performed using Excel (Microsoft, USA).
hPPB (human plasma protein binding) and mPPB (mouse plasma protein binding) results are described in Table 34D.
(In general: Equilibrium dialysis compares concentrations on both sides of a semipermeable membrane.)

[5] abbreviates: A-375, 1 h, read-out: PERK A375 mono (1 hr) plC50.
[6] abbreviates: HCT-116, 1 h, read-out: PERK HCT116 dimer (1 hr) plC50.

Molecules are shown by their SMILES. Where two headings read alike, the source gives them in different places.

Method for WiDr cells: The CellTitre Glo® reagent lyses the cells and contains luciferin and a luciferase (Ultra-Glo™ Recombinant Luciferase), which in the presence of ATP and oxygen can produce bioluminescence from luciferin. Therefore, plates were read on an EnVision reader (Perkin Elmer) and luminescence signals were recorded. Cell proliferation was determined on 4 days after dosing relative to the pre-treatment read. All data were analyzed using the Dotmatics or GraphPad Prism software packages. Inhibition of proliferation was assessed by determination of the GIso value, which was defined as the concentration of compound required to decrease the level of cell proliferation by 50% when compared to DMSO control.
The human WiDr colorectal adenocarcinoma cell line (ATCC CCL-218) endogenously expresses the BRAF^V600E mutation, which leads to enhanced survival and proliferative signaling.

As for `O=C1CCc2c(Oc3ccc4c(c3)C[C@@H](c3nc(-c5ccc(F)cc5)c[nH]3)CO4)ccnc2N1` (single isomer, unassigned) [Compound A-1], in the data set with WiDr cells, the GI50 is 52.5 nM. In data set [1], the hepatocyte CLint at 1 µM is 26.8 µL/min/1e6 cells. Also, the IC50 is 30.9 nM in data set [2] (setting [5]) and 40.7 nM in data set [3] (setting [6]). Moreover, in data set [4], the “hPPB (% free)” value amounted to 0.5 % free.
For `O=C1CCc2c(Oc3ccc4c(c3)CC(c3nc(-c5cccs5)c[nH]3)CO4)ccnc2N1` (racemic) [B-rac], the hepatocyte CLint at 1 µM in data set [1] stood at 11.5 µL/min/1e6 cells. The IC50 was 49 nM in data set [2] (A-375, A375 cells, BRAF monomer, 1 hr incubation, read-out: PERK A375 mono (1 hr) plC50 (converted)) and 28.2 nM in data set [3] (HCT-116, HCT116 cells, RAF dimer, 1 hr, read-out: PERK HCT116 dimer (1 hr) plC50 (converted)). Further, the “hPPB (% free)” value in data set [4] worked out at 0.7 % free.
In data set [1], `O=C1CCc2c(Oc3ccc4c(c3)CC(c3ncc(-c5ccc(F)cc5)[nH]3)CO4)ccnc2N1` (racemic) [A-rac] returned a hepatocyte CLint at 1 µM of 4.6 µL/min/1e6 cells. Besides, the IC50 in data set [2] (setting [5]) is 55 nM; in data set [3] (setting [6]), 49 nM. Further, in data set [4], the “hPPB (% free)” value came to 0.5 % free.
With `O=C1CCc2c(Oc3ccc4c(c3)C[C@H](c3nc(-c5ccc(F)cc5)c[nH]3)CO4)ccnc2N1` (single isomer, unassigned) [Compound A-2], the GI50 with WiDr cells is 537 nM. Also, the hepatocyte CLint at 1 µM in data set [1] was 11.4 µL/min/1e6 cells. The values for the IC50 in data set [2] (setting [5]) and in data set [3] (setting [6]) were 275 nM and 35.5 nM, respectively. The “hPPB (% free)” value in data set [4] worked out at 0.7 % free.
